One may read the Ki as the dissociation constant of the complex between target and ligand, obtained from inhibition or displacement.

The nature of test [1]: Inhibition of [3H]QNB binding towards muscarinic acetylcholine receptor in rat heart.
Test [2] in a line: (§1) Inhibition of [3H]pirenzepine binding towards muscarinic acetylcholine receptor in rat brain.
Test [3] has as its target T1, Muscarinic acetylcholine receptors; M1 & M2 (Homo sapiens, UniProt P11229+P08172).
T1 sequence (P11229 whole entry): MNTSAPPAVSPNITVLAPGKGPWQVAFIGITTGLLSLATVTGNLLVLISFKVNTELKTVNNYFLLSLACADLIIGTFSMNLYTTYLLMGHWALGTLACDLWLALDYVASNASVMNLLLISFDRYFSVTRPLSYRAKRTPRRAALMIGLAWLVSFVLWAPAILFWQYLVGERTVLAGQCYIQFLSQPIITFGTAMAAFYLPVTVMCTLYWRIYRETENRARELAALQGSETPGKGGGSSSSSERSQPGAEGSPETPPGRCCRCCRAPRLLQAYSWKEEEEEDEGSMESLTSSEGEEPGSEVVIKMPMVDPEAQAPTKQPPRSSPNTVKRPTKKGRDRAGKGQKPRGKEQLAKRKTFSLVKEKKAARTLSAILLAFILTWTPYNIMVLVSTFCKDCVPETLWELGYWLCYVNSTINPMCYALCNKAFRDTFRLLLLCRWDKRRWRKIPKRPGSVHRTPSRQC
T1 sequence (P08172 whole entry): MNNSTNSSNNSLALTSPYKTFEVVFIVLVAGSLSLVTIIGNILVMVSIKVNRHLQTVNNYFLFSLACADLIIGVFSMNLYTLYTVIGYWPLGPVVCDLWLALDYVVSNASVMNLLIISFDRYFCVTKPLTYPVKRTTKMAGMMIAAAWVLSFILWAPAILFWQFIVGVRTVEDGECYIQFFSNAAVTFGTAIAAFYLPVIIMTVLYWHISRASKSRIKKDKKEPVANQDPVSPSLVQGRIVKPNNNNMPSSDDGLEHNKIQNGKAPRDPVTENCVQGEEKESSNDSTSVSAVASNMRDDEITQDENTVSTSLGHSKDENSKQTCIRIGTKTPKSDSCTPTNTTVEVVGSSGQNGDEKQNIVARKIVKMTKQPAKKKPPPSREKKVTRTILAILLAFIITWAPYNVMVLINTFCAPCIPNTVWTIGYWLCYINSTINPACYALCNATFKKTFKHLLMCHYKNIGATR
Kind of test: Inhibition of [3H]QNB binding towards muscarinic acetylcholine receptor in guinea pig ileum. The test is classed as tissue-based, Cavia porcellus. The conditions noted are these: target entry is the homologue from another species.

Test [4] deals with Muscarinic acetylcholine receptor M3 (Homo sapiens, UniProt P20309). The experiment in a line: Inhibition of [3H]QNB binding to CHO cells bearing transfected muscarinic acetylcholine receptor M3. The test is classed as cell-based, Cricetulus griseus.
A short description of test [5]: as §1. Type of test: tissue-based.
Test [6] in a line: Inhibition of [3H]QNB binding towards muscarinic acetylcholine receptor in rat brain. Type of test: tissue-based.
The target of test [7] is T2, Muscarinic acetylcholine receptor M1 (Homo sapiens, UniProt P11229).
T2 sequence (P11229 whole entry): T1 sequence (P11229 whole entry)
The experiment in a line: Inhibition of [3H]QNB binding to CHO cells bearing transfected muscarinic acetylcholine receptor M1. Type of test: cell-based, Cricetulus griseus.

Sequence of Muscarinic acetylcholine receptor M3 (P20309 whole entry, looked up): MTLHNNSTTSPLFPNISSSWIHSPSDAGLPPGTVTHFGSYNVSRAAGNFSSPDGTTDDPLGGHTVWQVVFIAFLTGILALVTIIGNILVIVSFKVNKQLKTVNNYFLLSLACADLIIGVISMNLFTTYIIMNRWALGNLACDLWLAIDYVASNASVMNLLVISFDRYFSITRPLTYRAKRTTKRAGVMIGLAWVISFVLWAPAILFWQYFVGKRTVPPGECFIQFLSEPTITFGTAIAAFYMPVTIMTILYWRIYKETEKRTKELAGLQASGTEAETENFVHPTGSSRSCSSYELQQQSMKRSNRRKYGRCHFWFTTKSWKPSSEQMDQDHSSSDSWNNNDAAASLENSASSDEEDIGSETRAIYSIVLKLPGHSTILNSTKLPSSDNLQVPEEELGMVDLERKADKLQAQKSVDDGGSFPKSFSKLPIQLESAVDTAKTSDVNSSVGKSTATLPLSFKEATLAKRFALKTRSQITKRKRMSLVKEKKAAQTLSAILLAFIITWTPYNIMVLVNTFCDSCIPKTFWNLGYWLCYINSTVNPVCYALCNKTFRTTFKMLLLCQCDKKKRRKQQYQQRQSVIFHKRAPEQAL

As for `CN1[C@@H]2CC[C@H]1C[C@@H](OC(=O)C(CO)c1ccccc1)C2` (stereo partly drawn) [ATROPINE], the inhibition constant (Ki) in test [1] and in test [2] was 0.545 nM in each case.

On to `CN1CC2CC(OC(=O)C(C)(c3ccccc3)c3ccccc3)CC1C2` (stereo not drawn) [AZAPROPHEN], for which the Ki amounted to 0.279 nM in test [3]; 0.472 nM in test [4]; 0.13 nM in test [1]; 0.196 nM in test [5]; 0.118 nM in test [6]; 0.088 nM in test [7].

The values above are taken from ChEMBL document CHEMBL1125674, “Crystal, solution, and molecular modeling structural properties and muscarinic antagonist activity of azaprophen” (J Med Chem, 1991).
